This is an account of results in patent US12312355B2, “1H-[1, 2, 3]triazolo[4, 5-h] quinazoline compounds acting as protein kinase inhibitors” (CHENGDU CYNOGEN BIO-PHARMACEUTICAL TECHNOLOGY CO., LTD., priority 2019, dated 2025).

Assay type in all cases: biochemical
Common to all, as to conditions: class symbols

One assay concerns the target CDK6/cyclin D3 (Homo sapiens (Human), UniProt Q00534). The assay can be described thus: Kinase activity assay, Caliper Mobility Shift Assay, CDK6/cyclin D3.
A further assay concerns the target CDK4/cyclin D3 (Homo sapiens (Human), UniProt P11802). The assay can be described thus: Kinase activity assay, Caliper Mobility Shift Assay, CDK4/cyclin D3. As to the method: The inhibitory effect of the compound on the kinase CDK4/cyclin D3 was tested by the Caliper Mobility Shift Assay method. The final test concentration of the compound was 10 concentrations, which started from […] and were obtained by three-fold dilution. 5 μL of 5-fold final concentration compound and 10 μL of CDK4/Cyclin D3 kinase solution with final concentration of 10 nM were added to the 384-well reaction plate respectively, and pre incubated at room temperature for 10 minutes (the negative control well contained 10 μL kinase buffer and 5 μL 5% DMSO; the positive control well contained 10 μL kinase solution and 5 μL 5% DMSO). The mixture of 10 μL ATP with a final concentration of 250 μM and the corresponding substrate peptide was added to initiate the reaction, and the mixture was reacted at room temperature for 150 minutes. 30 μL of stop test solution containing EDTA was added to stop the kinase reaction. Conversion rate was read by Caliper EZ Reader. Conversion inhibition rate %=(average conversion rate of positive control %−sample conversion rate %)/(average conversion rate of positive control %−average conversion rate of negative control %). Wherein: the negative control well represents conversion rate reading of wells without enzyme activity; the positive control well represents conversion rate reading of wells without compound inhibition. The log value of concentration was taken as the X-axis and the percentage inhibition rate was the Y-axis. […] Calculation formula: Y=Bottom+(Top−Bottom)/(1+10^((Log IC50−X)*HillSlope)).

The next assay has as its target CDK2/cyclin A2 (Homo sapiens (Human), UniProt P24941). The assay can be described thus: Kinase activity assay, Caliper Mobility Shift Assay, CDK2/cyclin A2. As to the method:
The inhibitory effect of the compound on the kinase CDK4/cyclin D3 was tested by the Caliper Mobility Shift Assay method. The final test concentration of the compound was 10 concentrations, which started from […] and were obtained by three-fold dilution. 5 μL of 5-fold final concentration compound and 10 μL of CDK4/Cyclin D3 kinase solution with final concentration of 10 nM were added to the 384-well reaction plate respectively, and pre incubated at room temperature for 10 minutes (the negative control well contained 10 μL kinase buffer and 5 μL 5% DMSO; the positive control well contained 10 μL kinase solution and 5 μL 5% DMSO). The mixture of 10 μL ATP with a final concentration of 250 μM and the corresponding substrate peptide was added to initiate the reaction, and the mixture was reacted at room temperature for 150 minutes. 30 μL of stop test solution containing EDTA was added to stop the kinase reaction. Conversion rate was read by Caliper EZ Reader. Conversion inhibition rate %=(average conversion rate of positive control %−sample conversion rate %)/(average conversion rate of positive control %−average conversion rate of negative control %). Wherein: the negative control well represents conversion rate reading of wells without enzyme activity; the positive control well represents conversion rate reading of wells without compound inhibition. The log value of concentration was taken as the X-axis and the percentage inhibition rate was the Y-axis. The dose-effect curve was fitted by log(inhibitor) vs. response—Variable slope of the analysis software GraphPad Prism 5, and the IC50 value of each compound on the enzyme activity was obtained. Calculation formula: Y=Bottom+(Top−Bottom)/(1+10^((Log IC50−X)*HillSlope)).
The IC50 values of the compounds of the present disclosure for CDK6/cyclin D3 and CDK2/cyclin A2 were tested in a similar manner.

By IC50 is commonly meant the point on the concentration scale where inhibition reaches its midpoint.

Structures can show the parent of a compound that is named as a salt.

Chain of CDK6/cyclin D3 (Q00534 whole entry, species assumed): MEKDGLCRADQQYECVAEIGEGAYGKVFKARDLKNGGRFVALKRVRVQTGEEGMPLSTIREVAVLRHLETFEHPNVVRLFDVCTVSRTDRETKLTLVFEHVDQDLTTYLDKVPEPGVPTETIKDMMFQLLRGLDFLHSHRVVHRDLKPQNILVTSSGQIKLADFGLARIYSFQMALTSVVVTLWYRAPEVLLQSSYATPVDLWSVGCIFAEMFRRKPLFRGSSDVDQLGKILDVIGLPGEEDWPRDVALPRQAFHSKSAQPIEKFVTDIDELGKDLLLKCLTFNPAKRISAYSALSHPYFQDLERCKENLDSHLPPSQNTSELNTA
Chain of CDK6/cyclin D3 (P30281 whole entry partner, species assumed): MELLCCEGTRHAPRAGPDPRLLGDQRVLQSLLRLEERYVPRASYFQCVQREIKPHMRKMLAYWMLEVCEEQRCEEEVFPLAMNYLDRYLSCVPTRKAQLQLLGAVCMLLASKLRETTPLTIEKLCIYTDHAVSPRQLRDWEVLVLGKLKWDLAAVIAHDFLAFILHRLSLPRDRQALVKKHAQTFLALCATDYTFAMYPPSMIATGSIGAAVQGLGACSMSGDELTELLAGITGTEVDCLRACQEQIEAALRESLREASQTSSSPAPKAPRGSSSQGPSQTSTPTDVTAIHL
Chain of CDK4/cyclin D3 (P11802 whole entry, species assumed): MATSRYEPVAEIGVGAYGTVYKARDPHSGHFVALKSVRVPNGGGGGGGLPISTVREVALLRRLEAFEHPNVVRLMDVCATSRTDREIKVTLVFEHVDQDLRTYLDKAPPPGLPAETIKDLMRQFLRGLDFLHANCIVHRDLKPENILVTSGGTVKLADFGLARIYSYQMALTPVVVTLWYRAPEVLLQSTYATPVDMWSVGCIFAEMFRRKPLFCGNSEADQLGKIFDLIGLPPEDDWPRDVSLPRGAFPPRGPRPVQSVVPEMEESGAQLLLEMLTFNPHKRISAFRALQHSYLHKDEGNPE
Chain of CDK4/cyclin D3 (P30281 whole entry partner, species assumed): as the sequence (P30281 whole entry partner, species assumed) above

As to `CC(C)n1nnc2ccc3cnc(Nc4ccc(N5CCNCC5)c(F)c4)nc3c21` [Compound I-32, N-(3-Fluoro-4-(piperazin-1-yl)phenyl)-1-isopropyl-1H-[1,2,3]triazolo[4,5-h]quin-azolin-8-amine hydrochloride], the IC50 at CDK6/cyclin D3, on CDK4/cyclin D3 and on CDK2/cyclin A2 was less than 10 nM each time.
As to `CC(C)n1nnc2ccc3cnc(Nc4ccc(OCCN(C)C)cc4)nc3c21` [Compound I-38, N-(4-(2-(Dimethylamino)ethoxy)phenyl)-1-isopropyl-1H-[1,2,3]triazolo[4,5-h]quin-azolin-8-amine], the IC50 at CDK6/cyclin D3, on CDK4/cyclin D3 and on CDK2/cyclin A2 was less than 10 nM each time.
Regarding `CC(C)n1nnc2ccc3cnc(Nc4ccc(N5CCNCC5)cc4)nc3c21` [Compound I-24, 1-isopropyl-N-(4-(piperazin-1-yl)phenyl)-1H-[1,2,3]triazolo[4,5-h]quinazolin-8-amine hydrochloride], the IC50 on CDK6/cyclin D3, on CDK4/cyclin D3 and at CDK2/cyclin A2 was less than 10 nM throughout.
For `CCN1CCN(c2ccc(Nc3ncc4ccc5nnn(C(C)C)c5c4n3)cc2)CC1` [Compound I-25, N-(4-(4-Ethylpiperazin-1-yl)phenyl)-1-iso-propyl-1H-[1,2,3]triazolo[4,5-h]quin-azolin-8-amine], the IC50 at CDK6/cyclin D3, on CDK4/cyclin D3 and on CDK2/cyclin A2 was less than 10 nM throughout.
Regarding `CC(C)n1nnc2ccc3cnc(Nc4ccc(N5CCN(C)CC5)c(F)c4)nc3c21` [Compound I-33, N-(3-Fluoro-4-(4-methylpiperazin-1-yl)phenyl)-1-isopropyl-1H-[1,2,3]triazolo[4,5-h]quinazolin-8-amine], the IC50 at CDK6/cyclin D3, on CDK4/cyclin D3 and at CDK2/cyclin A2 was less than 10 nM each time.
On to `CC(C)n1nnc2ccc3cnc(Nc4ccc(C(=O)N5CCN(C)CC5)cc4)nc3c21` [Compound I-40], for which the IC50 on CDK6/cyclin D3, on CDK4/cyclin D3 and on CDK2/cyclin A2 was less than 10 nM each time.
As for `CC(C)n1nnc2ccc3cnc(Nc4ccc(N5CCOCC5)cc4F)nc3c21` [Compound I-29, N-(2-Fluoro-4-morpholinophenyl)-1-iso-propyl-1H-[1,2,3]triazolo[4,5-h]quinazo-lin-8-amine], the 50% inhibitory concentration (IC50) on CDK6/cyclin D3, at CDK4/cyclin D3 and at CDK2/cyclin A2 was 50 to 100 nM throughout.
Consider `CC(C)n1nnc2ccc3cnc(Nc4ccc(C(=O)N5CCNCC5)cc4)nc3c21` [Compound I-39, (4-((1-Isopropyl-1H-[1,2,3]triazolo[4,5-h]quinazolin-8-yl)amino)phenyl)(piper-azin-1-yl)methanone hydrochloride], for which the IC50 on CDK6/cyclin D3, at CDK4/cyclin D3 and at CDK2/cyclin A2 was less than 10 nM in each case.
On to `CC(C)n1nnc2ccc3cnc(Nc4ccc(N(CCN5CCOCC5)S(C)(=O)=O)cc4)nc3c21` [Compound I-37, N-(4-((1-Isopropyl-1H-[1,2,3]triazolo[4,5-h]quinazolin-8-yl)amino)phenyl)-N-(2-morpholinoethyl)methanesulfonamide], for which the IC50 at CDK6/cyclin D3, at CDK4/cyclin D3 and on CDK2/cyclin A2 was less than 10 nM each time.
Consider `CC(C)n1nnc2ccc3cnc(Nc4cccc(S(N)(=O)=O)c4)nc3c21` [Compound I-36, 3-((1-isopropyl-1H-[1,2,3]triazolo[4,5-h]quinazolin-8-yl)amino)benzenesulfonamide hydrochloride], for which the IC50 at CDK6/cyclin D3, on CDK4/cyclin D3 and on CDK2/cyclin A2 was less than 10 nM each time.
For `CC(C)n1nnc2ccc3cnc(Nc4ccc(N5CCC(CCCO)CC5)cc4)nc3c21` [Compound I-27, 3-(1-(4-((1-isopropyl-1H-[1,2,3]triazolo [4,5-h]quinazolin-8-yl)amino)phenyl)pi-peridin-4-yl)propan-1-ol], the IC50 at CDK6/cyclin D3, on CDK4/cyclin D3 and at CDK2/cyclin A2 was 50 to 100 nM throughout.
As for `CC(C)n1nnc2ccc3cnc(Nc4ccc(N5CCOCC5)c(F)c4)nc3c21` [Compound I-35, N-(3-Fluoro-4-morpholinophenyl)-1-iso-propyl-1H-[1,2,3]triazolo[4,5-h]quinazo-lin-8-amine hydrochloride], the IC50 at CDK6/cyclin D3, at CDK4/cyclin D3 and on CDK2/cyclin A2 was 10 to 50 nM throughout.
In the case of `CCN1CCN(c2ccc(Nc3ncc4ccc5nnn(C(C)C)c5c4n3)cc2F)CC1` [Compound I-34, N-(4-(4-Ethylpiperazin-1-yl)-3-fluorophe-nyl)-1-isopropyl-1H-[1,2,3]triazolo[4,5-h]quinazolin-8-amine hydrochloride], the IC50 at CDK6/cyclin D3, on CDK4/cyclin D3 and at CDK2/cyclin A2 was less than 10 nM throughout.
As for `COc1cc(N2CCN(C)CC2)ccc1Nc1ncc2ccc3nnn(C(C)C)c3c2n1` [Compound I-31, 1-Isopropyl-N-(2-methoxy-4-(4-methyl-piperazin-1-yl)phenyl)-1H-[1,2,3]triazo-lo[4,5-h]quinazolin-8-amine], the IC50 at CDK6/cyclin D3, at CDK4/cyclin D3 and on CDK2/cyclin A2 was 50 to 100 nM in each case.
As for `CC(C)n1nnc2ccc3cnc(Nc4ccc(N5CCOCC5)cc4)nc3c21` [Compound I-26, 1-Isopropyl-N-(4-morpholinophenyl)-1H-[1,2,3]triazolo[4,5-h]quinazolin-8-amine], the IC50 at CDK6/cyclin D3, on CDK4/cyclin D3 and on CDK2/cyclin A2 was less than 10 nM each time.
For the molecule `COc1cc(N2CCNCC2)ccc1Nc1ncc2ccc3nnn(C(C)C)c3c2n1` [Compound I-30, 1-Isopropyl-N-(2-methoxy-4-(piperazin-1-yl)phenyl)-1H-[1,2,3]triazolo[4,5-h]quin-azolin-8-amine hydrochloride], the IC50 on CDK6/cyclin D3, on CDK4/cyclin D3 and at CDK2/cyclin A2 was less than 10 nM each time.
Turning to `CC(C)n1nnc2ccc3cnc(Nc4ccc(N5CCNCC5)cc4F)nc3c21` [Compound I-28, N-(2-Fluoro-4-(piperazin-1-yl)phenyl)-1-isopropyl-1H-[1,2,3]triazolo[4,5-h]quin-azolin-8-amine hydrochloride], the IC50 at CDK6/cyclin D3, on CDK4/cyclin D3 and on CDK2/cyclin A2 was less than 10 nM in each case.
